These molecules were tested on HEK293 (assay: IC50 for inhibition of ZIKV NS1 production). Conditions: not given.
Description: (§1)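 HEK293 cells in 1536-well plates were pre-treated with compound for 1 h, infected with ZIKV (MOI 1) for 24 h, and NS1 antigen (intra- plus extracellular) was measured by TR-FRET. Confirmation used 11-point 1:3 dilutions, and IC50 and maximal inhibition were fitted in GraphPad Prism.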
`Cc1cc(Nc2cc(NC(=O)c3c(Cl)cccc3Cl)ccn2)nc(N)n1` gave an IC50 of 35 µM.
Work on `O=C(Nc1ncc(-c2cc(C(F)F)nn2-c2c(Cl)cccc2Cl)s1)C1CC1` yielded an IC50 of 1.2 µM.
`O=c1[nH]c2ccc(Cl)cc2c(N[C@@H]2CN3CCC2CC3)c1-c1nc2ccccc2[nH]1` showed an IC50 of 0.41 µM.
Work on `[O-][n+]1ccccc1SSc1cccc[n+]1[O-]` yielded an IC50 of 1.4 µM.
In the case of `CC(C)COCC(CN(Cc1ccccc1)c1ccccc1)N1CCCC1` (centres undefined), the IC50 is reported as 43 µM.
For `CCCOc1ccc2[nH]c(NC(=O)OC)nc2c1`, the IC50 was 4.9 µM.
For `CCOC(=O)N1CCN(/[N+]([O-])=N/Oc2ccc([N+](=O)[O-])cc2C#N)CC1`, the IC50 was 4.5 µM.
`CCN(CC)CCNC(=O)c1ccc2nc(-c3ccccc3)c(-c3ccc(CN4CCC(n5c(=O)[nH]c6ccccc65)CC4)cc3)nc2c1` was tested, and the IC50 was 60 µM.

Each molecule was assayed on HEK293 (assay: cytotoxicity IC50 (ATP content, uninfected cells); higher = less cytotoxic). Conditions: infection: none.
In the case of `Cc1cc(Nc2cc(NC(=O)c3c(Cl)cccc3Cl)ccn2)nc(N)n1`, the “cytotoxicity IC50” value is reported as 70 µM.
For `O=C(Nc1ncc(-c2cc(C(F)F)nn2-c2c(Cl)cccc2Cl)s1)C1CC1`, the “cytotoxicity IC50” value was > 100 µM.
In the case of `O=c1[nH]c2ccc(Cl)cc2c(N[C@@H]2CN3CCC2CC3)c1-c1nc2ccccc2[nH]1`, the “cytotoxicity IC50” value is reported as 3.3 µM.
`[O-][n+]1ccccc1SSc1cccc[n+]1[O-]` was tested, and the “cytotoxicity IC50” value was 0.16 µM.
In the case of `CC(C)COCC(CN(Cc1ccccc1)c1ccccc1)N1CCCC1` (centres undefined), the “cytotoxicity IC50” value is reported as > 100 µM.
In the case of `CCCOc1ccc2[nH]c(NC(=O)OC)nc2c1`, the “cytotoxicity IC50” value is reported as 86 µM.
With `CCOC(=O)N1CCN(/[N+]([O-])=N/Oc2ccc([N+](=O)[O-])cc2C#N)CC1` the “cytotoxicity IC50” value was > 100 µM.
In the case of `CCN(CC)CCNC(=O)c1ccc2nc(-c3ccccc3)c(-c3ccc(CN4CCC(n5c(=O)[nH]c6ccccc65)CC4)cc3)nc2c1`, the “cytotoxicity IC50” value is reported as > 100 µM.

What follows are molecules tested on HEK293 (assay: maximal inhibition of ZIKV NS1 production (% inhibition); higher = stronger antiviral effect). Conditions: not given.
Description: as §1
Molecule `Cc1cc(Nc2cc(NC(=O)c3c(Cl)cccc3Cl)ccn2)nc(N)n1` has a maximal inhibition of 97.
In the case of `O=C(Nc1ncc(-c2cc(C(F)F)nn2-c2c(Cl)cccc2Cl)s1)C1CC1`, the maximal inhibition is reported as 92.
`O=c1[nH]c2ccc(Cl)cc2c(N[C@@H]2CN3CCC2CC3)c1-c1nc2ccccc2[nH]1` was tested, and the maximal inhibition was 100.
With `[O-][n+]1ccccc1SSc1cccc[n+]1[O-]` the maximal inhibition was 98.
In the case of `CC(C)COCC(CN(Cc1ccccc1)c1ccccc1)N1CCCC1` (centres undefined), the maximal inhibition is reported as 55.
Work on `CCCOc1ccc2[nH]c(NC(=O)OC)nc2c1` yielded a maximal inhibition of 67.
`CCOC(=O)N1CCN(/[N+]([O-])=N/Oc2ccc([N+](=O)[O-])cc2C#N)CC1` gave a maximal inhibition of 74.
With `CCN(CC)CCNC(=O)c1ccc2nc(-c3ccccc3)c(-c3ccc(CN4CCC(n5c(=O)[nH]c6ccccc65)CC4)cc3)nc2c1` the maximal inhibition was 55.

— the supplement of paper PMC8498969
